Reference: article PMC12751000, “Dual Agonist/Antagonist Modulation of α9-Containing Nicotinic Acetylcholine Receptors by 2‑Ammoniumethyl Ethers of Stilbenol and Stilbenol Analogues” (Journal of Medicinal Chemistry, 2025)
Entries after “also recorded” stand apart in the source; their conditions may differ. Like-named read-outs stand apart in the source and are kept apart here. Where a SMILES comes first, the peptide text is derived from it. Bridges are numbered along the chain shown (N, C = ends).

Assays:
hα7 = conditions: ref: more recent studies, citation number not given, cited from earlier work
[1] = system: BzATP-induced release of IL-1β from human monocytic THP-1 cells; test: BzATP-induced IL-1β release by LPS-primed human monocytic THP-1 cells (ELISA); format: cell-based; conditions: for Effect on the inhibitory effect of ACh on BzATP-induced IL-1β release: LPS 1 μg/mL 5 h, BzATP 100 μM 40 min; for Effect on BzATP-induced IL-1β release in the absence of ACh: LPS-primed THP-1
Procedure: THP-1 cells were primed with lipopolysaccharide (LPS; 1 μg/mL, 5 h) followed by stimulation with the P2X7 receptor agonist BzATP (2′/3′-O-(4-benzoylbenzoyl)-adenosine-5′-triphosphate, tri(triethylammonium) salt) for 40 min to induce IL-1β release, which was quantified by ELISA.
Experiments on human monocytic THP-1 cells (German Collection of Microorganisms and Cell Cultures, Braunschweig, Germany, Cat# ACC16) were performed as described before. […] The supernatants were collected and stored for later IL-1β measurements using the Human IL-1β/IL-1F2 DuoSet ELISA from R&D Systems (Minneapolis MN, USA, Cat# DY201). Cell viability was assessed by measuring lactate dehydrogenase (LDH) activity in the supernatants using the CytoTox 96 Non-Radioactive Cytotoxicity Assay (Promega, Madison WI, USA; Cat# G1780). LDH activities were expressed as a percentage of total LDH activity from lysed control cells. Data on the BzATP-induced IL-1β release and LDH activity were analyzed using SPSS (Version 29.0.2.0, IBM, Armonk, NY, United States) and visualized using Inkscape version 0.48.5 r10040 (Free and Open Source Software licensed under the GPL). The data were analyzed first by the Friedman test.

α7-nAChR = conditions: read-out: α7-nAChR affinity (Ki); ref: previously reported, citation number not given; cited from earlier work
chick α7 nAChRs = conditions: cited from earlier work
hα9 nAChRs [2] = target: T1, hα9 nAChRs (Homo sapiens, UniProt Q9UGM1); test: Two-electrode voltage clamp, inhibition of ACh-evoked currents at hα9 nAChRs in Xenopus laevis oocytes; format: cell-based
T1 construct: host or cells: Xenopus laevis oocytes, cRNA-injected
T1 sequence (Q9UGM1 26-479 limits assumed): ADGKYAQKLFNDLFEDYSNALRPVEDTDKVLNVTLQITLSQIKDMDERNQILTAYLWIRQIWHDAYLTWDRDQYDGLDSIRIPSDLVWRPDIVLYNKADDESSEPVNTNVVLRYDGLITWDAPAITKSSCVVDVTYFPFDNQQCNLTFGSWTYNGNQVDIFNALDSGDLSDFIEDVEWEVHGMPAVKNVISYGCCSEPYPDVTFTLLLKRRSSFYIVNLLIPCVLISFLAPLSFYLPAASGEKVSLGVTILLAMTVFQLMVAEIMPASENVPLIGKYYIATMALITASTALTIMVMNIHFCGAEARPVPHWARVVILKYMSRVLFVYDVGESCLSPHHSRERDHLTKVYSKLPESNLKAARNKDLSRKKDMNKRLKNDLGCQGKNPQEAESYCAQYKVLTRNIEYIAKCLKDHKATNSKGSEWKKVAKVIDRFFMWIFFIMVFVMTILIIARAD

hα9α10 nAChRs [3] = target: T2, hα9α10 nAChRs (Homo sapiens, UniProt Q9GZZ6+Q9UGM1); test: Two-electrode voltage clamp, inhibition of ACh-evoked currents at hα9α10 nAChRs expressed in Xenopus laevis oocytes; format: cell-based
T2 construct: host or cells: Xenopus laevis oocytes, cRNA-injected (α9:α10 cRNA ratio 1:1)
T2 sequence (Q9UGM1 26-479 limits assumed): as above
T2 sequence (Q9GZZ6 25-450): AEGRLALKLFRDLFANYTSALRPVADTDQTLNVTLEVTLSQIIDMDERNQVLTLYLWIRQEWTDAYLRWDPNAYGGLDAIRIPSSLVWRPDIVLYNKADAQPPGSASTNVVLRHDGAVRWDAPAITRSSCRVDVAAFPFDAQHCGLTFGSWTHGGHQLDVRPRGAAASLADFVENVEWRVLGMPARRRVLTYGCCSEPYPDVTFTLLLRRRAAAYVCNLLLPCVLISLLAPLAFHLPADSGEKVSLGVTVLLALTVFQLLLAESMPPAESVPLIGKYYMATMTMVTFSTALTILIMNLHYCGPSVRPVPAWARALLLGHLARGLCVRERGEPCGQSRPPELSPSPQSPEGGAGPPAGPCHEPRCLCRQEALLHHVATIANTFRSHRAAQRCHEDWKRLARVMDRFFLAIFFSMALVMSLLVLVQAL
Excerpt: (§1) The protocols were approved by the Animal Ethics Committees of the Victor Chang Cardiac Research Institute, Sydney, and the University of Wollongong (project number AE 20/17). Human α9 and α10 nAChR clones were obtained from OriGene (Rockville, MD, USA) and subcloned into the pT7TS vector. The human α7 nAChR clone, in the plasmid pMXT, was kindly provided by J. Lindstrom (University of Pennsylvania, USA). Constructs of human nAChR subunits were linearized and used for in vitro cRNA transcription with the SP6/T7 mMessage mMachine transcription kit (AMBION, Forster City, CA, USA).
(§2) The cRNA concentration was verified spectrophotometrically and by gel electrophoresis.
(§3) Electrophysiological recordings were conducted 2–5 days after cRNA injection using a HiClamp automated two-electrode voltage-clamp screening system (MultiChannel Systems GmbH, Reutlingen, Germany) with a holding potential of –80 mV. To prevent the activation of endogenous Ca^2+-activated chloride channels due to the Ca^2+ permeability of α9-containing nAChRs, oocytes were preincubated with 100 μM BAPTA-AM for approximately 3 h.
For concentration–response experiments assessing modulation of ACh-evoked responses, oocytes were initially superfused with ND96 or ND115 solution, depending on the receptor subtype. […] After ACh application, a 3 min washout was performed. Oocytes were then incubated with the test compound for 5 min, followed by coapplication of the compound and ACh in a continuously flowing bath solution. All compounds were prepared in ND96 or ND115 with 0.1% bovine serum albumin (BSA).

hα9 nAChRs [4] = target: T1, hα9 nAChRs; test: Two-electrode voltage clamp, compound-evoked currents at hα9 nAChRs in Xenopus laevis oocytes; format: cell-based; conditions: compound applied alone
hα9α10 nAChRs [5] = target: T2, hα9α10 nAChRs; test: Two-electrode voltage clamp, compound-evoked currents (compound applied alone) at hα9α10 nAChRs in Xenopus laevis oocytes; format: cell-based; conditions: compound applied alone (300 pM to 30 μM), normalized to response at highest concentration
Excerpt: as §1, §2, §3
Concentration–response experiments assessing compound-evoked currents were performed by initially superfusing α9-containing nAChRs oocytes with ND115 solution. Test compounds were then applied at concentrations ranging from 300 pM to 30 μM, followed by a 3 min washout period.

hα7 nAChRs [6] = target: T3, hα7 nAChRs (Homo sapiens, UniProt P36544); test: Two-electrode voltage clamp, inhibition of ACh-evoked currents at hα7 nAChRs in Xenopus laevis oocytes; format: cell-based
T3 construct: host or cells: Xenopus laevis oocytes, cRNA-injected (10 ng)
T3 sequence (P36544 23-502): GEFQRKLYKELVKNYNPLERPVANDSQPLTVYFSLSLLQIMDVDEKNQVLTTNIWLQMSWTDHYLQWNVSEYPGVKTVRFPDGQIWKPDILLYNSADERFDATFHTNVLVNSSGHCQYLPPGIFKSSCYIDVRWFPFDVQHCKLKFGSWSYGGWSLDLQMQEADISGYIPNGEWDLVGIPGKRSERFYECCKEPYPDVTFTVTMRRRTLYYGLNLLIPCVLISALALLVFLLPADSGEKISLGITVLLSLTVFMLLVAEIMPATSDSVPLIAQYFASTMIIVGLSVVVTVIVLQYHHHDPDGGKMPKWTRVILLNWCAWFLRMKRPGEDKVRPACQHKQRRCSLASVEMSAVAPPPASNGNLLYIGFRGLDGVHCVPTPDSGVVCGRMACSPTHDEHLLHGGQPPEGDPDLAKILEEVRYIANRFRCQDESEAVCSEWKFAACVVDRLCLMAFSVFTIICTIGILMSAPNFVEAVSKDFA

hα7 nAChRs [7] = target: T3, hα7 nAChRs; test: Two-electrode voltage clamp, compound-evoked currents at hα7 nAChRs in Xenopus laevis oocytes; format: cell-based; conditions: compound applied alone
Procedure: Additionally, five compounds of the series were tested on the homomeric hα7 and hα9 nAChRs.
as §1, §2, §3

hα9α10 nAChRs [8] = target: T2, hα9α10 nAChRs; test: cell-based

SMILES: CC[N+](CC)(CC)CCOc1ccc(/C=C/c2ccccc2)cc1 [Compound 1, 2-triethylammonium ethyl ether of 4-stilbenol]
- IC50 (hα7; 200 μM ACh): 41 nM
- IC50 (hα7; 1 mM ACh): 1990 nM
- Effect on the inhibitory effect of ACh on BzATP-induced IL-1β release ([1]; compound 100 pM + ACh 10 μM): efficiently antagonized the inhibitory effect of ACh
- Effect on BzATP-induced IL-1β release in the absence of ACh ([1]; compound 100 pM): only slightly reduced
- Effect on the inhibitory effect of ACh on BzATP-induced IL-1β release ([1]; compound 100 nM + ACh 10 μM): efficiently antagonized the inhibitory effect of ACh
- Effect on BzATP-induced IL-1β release in the absence of ACh ([1]; compound 100 nM): only slightly reduced; also recorded: failed to reduce IL-1β release
- Ki (α7-nAChR): 104 nM
- IC50 (chick α7 nAChRs; chick α7, 100 μM ACh, ref: citation number not given): 90 to 110 nM
- Currents evoked when applied alone (chick α7 nAChRs; wild-type chick α7 nAChRs, ref: previous findings, citation number not given): did not evoke currents

SMILES: C[N+](C)(CCOc1ccc(COc2ccccc2)cc1)C1CCCCC1.[I-] [Compound 22, N,N-Dimethyl-N-(2-(4-(phenoxymethyl)phenoxy)ethyl)cyclohexanaminium Iodide]
- IC50 ratio to Cpd 1 (hα9 nAChRs [2]): 0.1
- n H (Hill coefficient of inhibition) (hα9 nAChRs [2]; 50 μM ACh): 1.5
- IC50 (hα9 nAChRs [2]; 50 μM ACh, 5 min preincubation): 26.2 nM
- IC50 ratio to Cpd 1 (hα9α10 nAChRs [3]): 0.3
- n H (Hill coefficient of inhibition) (hα9α10 nAChRs [3]; 6 μM ACh): 1.7
- IC50 (hα9α10 nAChRs [3]; 6 μM ACh, 5 min preincubation with compound, holding potential −80 mV): 16 nM
- Effect on the inhibitory effect of ACh on BzATP-induced IL-1β release ([1]; compound 100 pM + ACh 10 μM): efficiently antagonized the inhibitory effect of ACh
- Effect on BzATP-induced IL-1β release in the absence of ACh ([1]; compound 100 pM): minor reduction
- Effect on the inhibitory effect of ACh on BzATP-induced IL-1β release ([1]; compound 100 nM + ACh 10 μM): mild antagonistic effects
- Effect on BzATP-induced IL-1β release in the absence of ACh ([1]; compound 100 nM): effectively and significantly inhibited
- EC50 (hα9 nAChRs [4]): did not elicit any current; also recorded: lacked agonist activity; also recorded: No activity
- EC50 (hα9α10 nAChRs [5]): failed to activate; also recorded: lacked agonist activity; also recorded: No activity
- IC50 ratio to Cpd 1 (hα7 nAChRs [6]): 0.8
- n H (Hill coefficient of inhibition) (hα7 nAChRs [6]; 100 μM ACh): 1.5
- IC50 (hα7 nAChRs [6]; 100 μM ACh, 5 min preincubation): 336 nM
- EC50 (hα7 nAChRs [7]): lacked agonist activity; also recorded: No activity

SMILES: CC[C@H](C)[C@@H]1NC(=O)[C@H](CC(=O)O)NC(=O)[C@@H]2CCCN2C(=O)[C@H](CC(N)=O)NC(=O)[C@H](CC(N)=O)NC(=O)[C@H](C(C)C)NC(=O)[C@H](CO)NC(=O)[C@@H]2CSSC[C@H](NC(=O)CN)C(=O)N[C@@H](CSSC[C@@H](C(N)=O)NC1=O)C(=O)N[C@@H](CO)C(=O)N[C@@H](Cc1c[nH]cn1)C(=O)N1CCC[C@H]1C(=O)N[C@@H](C)C(=O)N2 [α-conotoxin Mr1.1] (H-GCCSHPACSVNNPDIC-NH2; disulfide 2-8, 3-16)
- Hill coefficient (n H) (hα9α10 nAChRs [8]): 1.3

SMILES: CC[C@H](C)[C@@H]1NC(=O)[C@H](CC(=O)O)NC(=O)[C@@H]2CCCN2C(=O)[C@H](CC(N)=O)NC(=O)[C@H](CC(N)=O)NC(=O)[C@H](C(C)C)NC(=O)[C@H](CO)NC(=O)[C@@H]2CSSC[C@H](NC(=O)CN)C(=O)N[C@@H](CSSC[C@@H](C(N)=O)NC1=O)C(=O)N[C@@H](CO)C(=O)N[C@@H](Cc1cnc[nH]1)C(=O)N1CCC[C@H]1C(=O)N[C@@H](C)C(=O)N2 [α-conotoxin Mr1.1] (H-GCCSHPACSVNNPDIC-NH2; disulfide 2-8, 3-16)
- IC50 (hα9α10 nAChRs [8]): 82.9 nM
